# Assay results reported in ChEMBL document CHEMBL4376829, “Discovery and biological evaluation of vinylsulfonamide derivatives as highly potent, covalent TEAD autopalmitoylation inhibitors” (Eur J Med Chem, 2019).
# Calls of active or inactive are those of the source. The calls are words filed in the database; no cut-off is given here.
# Experiments:
# [1] = biological target: T1, Transcriptional enhancer factor TEF-3 (Homo sapiens, UniProt Q15561); test: Inhibition of FITC-labeled YAP peptide (61 to 100 residues) binding to TEAD4 (unknown origin) preincubated for 1 hr followed by FITC-labeled YAP peptide addition and measured after 30 mins by fluorescence polarization assay
# T1 sequence (Q15561 whole entry, the tested form may be a part): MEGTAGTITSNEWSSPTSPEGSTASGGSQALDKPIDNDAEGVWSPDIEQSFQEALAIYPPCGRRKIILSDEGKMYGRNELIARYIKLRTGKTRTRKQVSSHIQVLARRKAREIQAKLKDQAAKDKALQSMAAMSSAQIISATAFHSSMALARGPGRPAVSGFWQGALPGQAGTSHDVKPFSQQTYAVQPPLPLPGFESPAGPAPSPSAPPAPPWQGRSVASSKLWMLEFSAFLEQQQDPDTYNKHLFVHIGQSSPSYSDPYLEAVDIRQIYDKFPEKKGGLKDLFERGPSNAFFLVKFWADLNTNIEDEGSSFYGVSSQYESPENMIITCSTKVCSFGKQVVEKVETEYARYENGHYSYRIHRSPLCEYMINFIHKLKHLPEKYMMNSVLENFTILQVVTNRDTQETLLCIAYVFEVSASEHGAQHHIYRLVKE
# [2] = biological target: T1, Transcriptional enhancer factor TEF-3; test: Binding affinity to N-terminal His6 tagged human TEAD4-YBD (217 to 434 residues) expressed in Escherichia coli C43 (DE3) cells assessed as covalent modification by measuring change in protein mass by mass spectral analysis
# [3] = GSH reactivity in PBS assessed as GSH adduct formation at 1 mM after 8 hrs by UPLC-MS analysis; format: physicochemical; settings: buffer, 1000 µM
# [4] = biological target: Fatty acid-binding protein, adipocyte (Homo sapiens) (UniProt P15090); test: Binding affinity to FABP4 (unknown origin) at 1:1 ratio by fluorescence based thermal shift assay
# Fatty acid-binding protein, adipocyte (Homo sapiens), sequence (P15090 2-132 limits assumed): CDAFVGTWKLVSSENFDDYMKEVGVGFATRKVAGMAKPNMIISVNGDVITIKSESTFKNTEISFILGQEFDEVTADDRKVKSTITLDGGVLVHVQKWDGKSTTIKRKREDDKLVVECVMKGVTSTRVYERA
# [5] = biological target: Fatty acid-binding protein 5 (Homo sapiens) (UniProt Q01469); test: Binding affinity to FABP5 (unknown origin) at 1:1 ratio by fluorescence based thermal shift assay
# Fatty acid-binding protein 5 (Homo sapiens), sequence (Q01469 whole entry): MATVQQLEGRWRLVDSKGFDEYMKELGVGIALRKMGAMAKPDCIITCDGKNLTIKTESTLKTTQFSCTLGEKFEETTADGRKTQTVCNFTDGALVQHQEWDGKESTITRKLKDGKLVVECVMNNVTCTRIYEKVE
# Homo sapiens [6] = species on record: Homo sapiens; test: Inhibition of TEAD transcriptional activity in human HCT116 cells assessed as reduction in CTGF expression by qRT-PCR analysis; format: cell-based
# [7] = biological target: LIM domain kinase 2 (Homo sapiens) (UniProt P53671); test: Inhibition of human LIMK2 at 10 uM by radiometric assay relative to control
# LIM domain kinase 2 (Homo sapiens), sequence (P53671 whole entry, looked up, the tested form may be a part): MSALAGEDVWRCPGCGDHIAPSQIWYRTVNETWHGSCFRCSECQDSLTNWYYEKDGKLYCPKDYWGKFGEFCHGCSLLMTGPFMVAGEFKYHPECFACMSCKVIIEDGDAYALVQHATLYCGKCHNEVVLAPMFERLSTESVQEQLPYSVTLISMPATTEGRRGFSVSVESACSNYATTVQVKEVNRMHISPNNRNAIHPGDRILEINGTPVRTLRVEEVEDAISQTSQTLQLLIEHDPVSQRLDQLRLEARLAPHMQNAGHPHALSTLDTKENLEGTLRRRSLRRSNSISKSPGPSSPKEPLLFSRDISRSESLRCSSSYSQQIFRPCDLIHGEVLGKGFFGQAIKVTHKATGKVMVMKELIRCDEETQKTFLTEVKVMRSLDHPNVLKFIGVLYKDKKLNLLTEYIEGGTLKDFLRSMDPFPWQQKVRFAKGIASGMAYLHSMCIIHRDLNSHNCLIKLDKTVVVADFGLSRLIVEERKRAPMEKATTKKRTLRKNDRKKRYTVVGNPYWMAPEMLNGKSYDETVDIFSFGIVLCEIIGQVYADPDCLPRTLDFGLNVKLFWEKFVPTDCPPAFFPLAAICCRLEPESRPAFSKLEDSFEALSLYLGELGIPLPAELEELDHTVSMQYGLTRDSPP
# [8] = biological target: LIM domain kinase 1 (Homo sapiens) (UniProt P53667); test: Inhibition of recombinant human LIMK1 (285 to 638 residues) at 10 uM using cofilin as substrate measured after 40 mins in presence of [gamm33P]ATP by scintillation counting method relative to control
# LIM domain kinase 1 (Homo sapiens), sequence (P53667 whole entry, looked up, the tested form may be a part): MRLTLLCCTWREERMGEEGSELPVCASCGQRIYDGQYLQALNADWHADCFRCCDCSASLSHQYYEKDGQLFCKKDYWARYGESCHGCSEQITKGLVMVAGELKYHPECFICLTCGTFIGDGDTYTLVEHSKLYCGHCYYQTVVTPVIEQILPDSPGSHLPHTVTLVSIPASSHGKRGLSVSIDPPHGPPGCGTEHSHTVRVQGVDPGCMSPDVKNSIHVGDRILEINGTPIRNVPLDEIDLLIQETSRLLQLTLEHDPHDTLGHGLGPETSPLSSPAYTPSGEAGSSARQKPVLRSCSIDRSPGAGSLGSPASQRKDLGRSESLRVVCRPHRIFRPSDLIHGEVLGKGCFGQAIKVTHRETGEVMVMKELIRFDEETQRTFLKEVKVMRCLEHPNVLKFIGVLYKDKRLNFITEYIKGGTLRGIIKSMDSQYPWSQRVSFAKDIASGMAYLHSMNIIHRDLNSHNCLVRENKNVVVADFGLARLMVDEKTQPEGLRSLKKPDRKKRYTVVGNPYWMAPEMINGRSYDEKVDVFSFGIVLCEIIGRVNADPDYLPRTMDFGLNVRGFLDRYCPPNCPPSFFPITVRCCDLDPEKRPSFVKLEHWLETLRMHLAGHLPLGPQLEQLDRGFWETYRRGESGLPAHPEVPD
# [9] = biological target: Ribosomal protein S6 kinase alpha-3 (Homo sapiens) (UniProt P51812); test: Inhibition of full length recombinant human Rsk2 (2 to end residues) at 10 uM using KKKNRTLSVA as substrate after 40 mins in presence of [gamma33P]ATP by scintillation counting method relative to control
# [10] = biological target: Ribosomal protein S6 kinase alpha-1 (Homo sapiens) (UniProt Q15418); test: Inhibition of full length recombinant human Rsk1 at 10 uM using KKKNRTLSVA as substrate after 40 mins in presence of [gamma33P]ATP by scintillation counting method relative to control
# [11] = biological target: Receptor-interacting serine/threonine-protein kinase 2 (Homo sapiens) (UniProt O43353); test: Inhibition of human RIPK2 (1 to 299 residues) at 10 uM using MBP as substrate measured after 120 mins in presence of [gamma33P]ATP by scintillation counting method relative to control
# [12] = biological target: Interleukin-1 receptor-associated kinase 1 (Homo sapiens) (UniProt P51617); test: Inhibition of recombinant human IRAK1 (194 to end residues) at 10 uM using myelin basic protein as substrate after 40 mins in presence of [gamma33P]ATP by scintillation counting method relative to control
# Interleukin-1 receptor-associated kinase 1 (Homo sapiens), sequence (P51617 whole entry, looked up): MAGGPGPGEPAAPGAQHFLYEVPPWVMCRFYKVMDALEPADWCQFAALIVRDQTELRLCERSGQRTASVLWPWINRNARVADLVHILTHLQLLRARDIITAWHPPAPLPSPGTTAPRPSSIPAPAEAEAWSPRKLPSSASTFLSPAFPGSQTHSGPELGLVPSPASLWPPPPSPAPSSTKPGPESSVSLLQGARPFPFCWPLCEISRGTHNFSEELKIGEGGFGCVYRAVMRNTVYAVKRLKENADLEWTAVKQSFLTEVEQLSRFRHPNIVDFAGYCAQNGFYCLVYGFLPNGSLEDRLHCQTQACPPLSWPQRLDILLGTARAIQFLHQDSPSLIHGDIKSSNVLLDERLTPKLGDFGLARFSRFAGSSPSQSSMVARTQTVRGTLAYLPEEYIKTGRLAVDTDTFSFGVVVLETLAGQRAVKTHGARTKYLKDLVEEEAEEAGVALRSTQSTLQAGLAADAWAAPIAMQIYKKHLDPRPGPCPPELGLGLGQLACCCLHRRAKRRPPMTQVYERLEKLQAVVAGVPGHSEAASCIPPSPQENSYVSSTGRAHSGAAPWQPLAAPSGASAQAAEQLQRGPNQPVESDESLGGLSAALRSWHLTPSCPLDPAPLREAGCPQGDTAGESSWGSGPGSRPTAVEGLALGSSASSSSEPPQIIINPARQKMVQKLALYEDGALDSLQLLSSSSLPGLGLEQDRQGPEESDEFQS
# Homo sapiens [13] = species on record: Homo sapiens; test: Inhibition of recombinant human Flt4 V1128L/H1146R mutant (800 to end residues) at 10 uM using GGEEEEYFELVKKKK as substrate measured after 40 mins in presence of [gamma33P]ATP by scintillation counting method relative to control
# [14] = biological target: Serine/threonine-protein kinase D3 (Homo sapiens) (UniProt O94806); test: Inhibition of full-length recombinant human PKD3 at 10 uM using KKLRRTLSVA as substrate after 40 mins by in presence of [gamma33P]ATP by scintillation counting method relative to control
# Serine/threonine-protein kinase D3 (Homo sapiens), sequence (O94806 whole entry): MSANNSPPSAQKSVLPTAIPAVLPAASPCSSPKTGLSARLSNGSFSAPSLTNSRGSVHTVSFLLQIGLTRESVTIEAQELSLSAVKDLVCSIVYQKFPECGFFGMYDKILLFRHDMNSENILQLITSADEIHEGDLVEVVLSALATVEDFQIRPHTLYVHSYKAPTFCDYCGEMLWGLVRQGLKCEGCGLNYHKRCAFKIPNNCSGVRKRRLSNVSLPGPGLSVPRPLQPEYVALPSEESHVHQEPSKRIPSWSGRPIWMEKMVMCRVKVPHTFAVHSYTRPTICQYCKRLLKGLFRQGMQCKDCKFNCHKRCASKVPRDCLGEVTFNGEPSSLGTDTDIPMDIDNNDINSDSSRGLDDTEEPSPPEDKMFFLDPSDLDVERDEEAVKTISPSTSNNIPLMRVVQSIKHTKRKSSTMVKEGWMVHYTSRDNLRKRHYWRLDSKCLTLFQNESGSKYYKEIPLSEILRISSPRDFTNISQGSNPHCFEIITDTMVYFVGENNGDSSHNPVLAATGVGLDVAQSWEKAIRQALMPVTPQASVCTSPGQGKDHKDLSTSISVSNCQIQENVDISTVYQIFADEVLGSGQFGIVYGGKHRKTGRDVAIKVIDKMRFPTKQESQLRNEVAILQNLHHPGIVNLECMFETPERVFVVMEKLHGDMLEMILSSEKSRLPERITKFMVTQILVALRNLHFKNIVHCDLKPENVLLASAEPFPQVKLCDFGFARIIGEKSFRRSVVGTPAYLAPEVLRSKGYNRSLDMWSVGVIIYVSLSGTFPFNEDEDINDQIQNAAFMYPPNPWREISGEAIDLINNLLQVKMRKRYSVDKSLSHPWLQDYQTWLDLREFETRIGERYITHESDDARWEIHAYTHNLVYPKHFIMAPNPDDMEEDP
# [15] = biological target: Serine/threonine-protein kinase D2 (Homo sapiens) (UniProt Q9BZL6); test: Inhibition of full-length recombinant human PKD2 at 10 uM using KKLNRTLSVA as substrate after 40 mins by in presence of [gamma33P]ATP by scintillation counting method relative to control
# [16] = biological target: Phosphatidylinositol 4-phosphate 5-kinase type-1 gamma (Homo sapiens) (UniProt O60331); test: Inhibition of recombinant full-length human PIP5K1g at 10 uM using phosphatidylinositol 4-phosphate as substrate measured after 40 mins by fluorescence assay relative to control
# [17] = biological target: Serine/threonine-protein kinase NIM1 (Homo sapiens) (UniProt Q8IY84); test: Inhibition of recombinant human full length NIM1 at 10 uM using KKKVSRSGLYRSPSMPENLNRPR as substrate incubated for 40 mins in presence of [gamma-33P]-ATP by scintillation counting method relative to control
# [18] = biological target: Serine/threonine-protein kinase 24 (Homo sapiens) (UniProt Q9Y6E0); test: Inhibition of recombinant human MST3 (1 to 304 residues) at 10 uM using ERMRPRKRQGSVRRRV as substrate measured after 40 mins in presence of [gamma33P]ATP by scintillation counting method relative to control
# [19] = biological target: Cyclin-dependent kinase 13/Cyclin-K (Homo sapiens) (UniProt Q14004+O75909); test: Inhibition of full-length recombinant human CDK13/cyclinK at 10 uM using RSRSRSRSRSRSRSR as substrate after 120 mins by in presence of [gamma33P]ATP by scintillation counting method relative to control; format: protein-complex assay
# [20] = biological target: Mitogen-activated protein kinase kinase kinase 9 (Homo sapiens) (UniProt P80192); test: Inhibition of recombinant human MLK1 (134 to 414 residues) at 10 uM using casein as substrate measured after 40 mins in presence of [gamma33P]ATP by scintillation counting method relative to control
# [21] = biological target: Dual specificity mitogen-activated protein kinase kinase 2 (Homo sapiens) (UniProt P36507); test: Inhibition of recombinant full-length human MEK2 at 10 uM using MBP as substrate measured after 40 mins in presence of [gamma33P]ATP by scintillation counting method relative to control
# [22] = biological target: Protein-tyrosine kinase 6 (Homo sapiens) (UniProt Q13882); test: Inhibition of full-length recombinant human BRK at 10 uM using poly(Glu, Tyr) 4:1 as substrate measured after 40 mins in presence of [gamma33P]ATP by scintillation counting method relative to control
# Protein-tyrosine kinase 6 (Homo sapiens), sequence (Q13882 whole entry, looked up): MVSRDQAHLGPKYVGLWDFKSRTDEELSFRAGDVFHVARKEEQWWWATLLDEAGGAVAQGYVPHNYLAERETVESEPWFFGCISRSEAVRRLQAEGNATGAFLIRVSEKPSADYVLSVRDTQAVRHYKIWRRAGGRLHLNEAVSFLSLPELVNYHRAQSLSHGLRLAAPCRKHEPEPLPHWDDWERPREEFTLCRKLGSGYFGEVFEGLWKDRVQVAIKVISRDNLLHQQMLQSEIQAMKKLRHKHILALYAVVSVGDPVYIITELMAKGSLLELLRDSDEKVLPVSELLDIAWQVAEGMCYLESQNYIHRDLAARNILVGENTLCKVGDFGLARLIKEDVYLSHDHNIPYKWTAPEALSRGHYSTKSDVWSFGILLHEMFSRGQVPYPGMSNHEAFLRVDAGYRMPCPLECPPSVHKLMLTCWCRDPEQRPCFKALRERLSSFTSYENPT
# [23] = biological target: NUAK family SNF1-like kinase 1 (Homo sapiens) (UniProt O60285); test: Inhibition of recombinant human ARK5 (2 to end residues) at 10 uM using KKKVSRSGLYRSPSMPENLNRPR as substrate measured after 40 mins in presence of [gamma33P]ATP by scintillation counting method relative to control
# [24] = biological target: Activin receptor type-2A (Homo sapiens) (UniProt P27037); test: Inhibition of recombinant human ACTR2 (162 to end residues) at 10 uM using casein as substrate after 120 mins in presence of [gamma33P]ATP by scintillation counting method relative to control
# Activin receptor type-2A (Homo sapiens), sequence (P27037 whole entry): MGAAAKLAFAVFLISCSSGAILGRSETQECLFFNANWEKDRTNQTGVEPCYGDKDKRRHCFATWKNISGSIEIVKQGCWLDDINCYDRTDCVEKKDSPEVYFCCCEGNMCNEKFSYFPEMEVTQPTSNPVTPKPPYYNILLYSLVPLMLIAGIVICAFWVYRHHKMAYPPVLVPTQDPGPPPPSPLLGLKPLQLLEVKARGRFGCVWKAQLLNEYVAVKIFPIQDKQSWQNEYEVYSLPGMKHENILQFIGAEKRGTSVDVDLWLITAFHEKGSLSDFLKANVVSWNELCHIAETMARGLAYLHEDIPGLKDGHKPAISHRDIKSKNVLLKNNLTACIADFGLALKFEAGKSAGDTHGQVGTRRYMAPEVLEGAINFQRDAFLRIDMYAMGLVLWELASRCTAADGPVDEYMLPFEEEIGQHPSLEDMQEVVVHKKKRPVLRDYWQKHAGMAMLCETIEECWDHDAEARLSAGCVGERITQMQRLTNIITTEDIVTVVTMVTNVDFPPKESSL
# [25] = biological target: N-lysine methyltransferase SMYD2 (Homo sapiens) (UniProt Q9NRG4); test: Inhibition of human SMYD2 at 10 uM relative to control
# N-lysine methyltransferase SMYD2 (Homo sapiens), sequence (Q9NRG4 whole entry): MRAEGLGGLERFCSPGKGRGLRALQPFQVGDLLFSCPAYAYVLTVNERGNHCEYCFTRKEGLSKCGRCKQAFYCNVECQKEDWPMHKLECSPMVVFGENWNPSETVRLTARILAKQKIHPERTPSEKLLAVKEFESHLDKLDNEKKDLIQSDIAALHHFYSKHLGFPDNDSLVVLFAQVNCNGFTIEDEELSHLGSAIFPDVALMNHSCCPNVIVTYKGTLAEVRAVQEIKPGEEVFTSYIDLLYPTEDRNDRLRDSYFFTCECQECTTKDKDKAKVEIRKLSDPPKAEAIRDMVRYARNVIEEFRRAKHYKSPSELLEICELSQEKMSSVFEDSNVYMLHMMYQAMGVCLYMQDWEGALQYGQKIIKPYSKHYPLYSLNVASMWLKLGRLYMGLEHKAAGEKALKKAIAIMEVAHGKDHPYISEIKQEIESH
# [26] = biological target: Histone acetyltransferase KAT2A (Homo sapiens) (UniProt Q92830); test: Inhibition of human GCN5 at 10 uM after 1 hr by radioisotope-based assay relative to control
compound,measurement,setting,value
C=CS(=O)(=O)Nc1ccc(Cc2ccc3ccccc3c2)cc1,Activity,[1],inactive
same,Activity,[2],Active
same,Activity,[3],Not Active
same,Activity,[4],Active
same,Activity,[5],Active
same,inhibition,Homo sapiens [6],Dose-dependent effect
same,inhibition,[7],-8%
same,inhibition,[8],-1%
same,inhibition,[9],-3%
same,inhibition,[10],22%
same,inhibition,[11],6%
same,inhibition,[12],-9%
same,inhibition,Homo sapiens [13],15%
same,inhibition,[14],22%
same,inhibition,[15],-4%
same,inhibition,[16],-3%
same,inhibition,[17],-5%
same,inhibition,[18],3%
same,inhibition,[19],17%
same,inhibition,[20],8%
same,inhibition,[21],-9%
same,inhibition,[22],-6%
same,inhibition,[23],10%
same,inhibition,[24],-5%
same,inhibition,[25],3%
same,inhibition,[26],2%
